From ChEMBL document CHEMBL1135763, “Discovery of aminothiazole inhibitors of cyclin-dependent kinase 2: synthesis, X-ray crystallographic analysis, and biological activities” (J Med Chem, 2002)
pIC50: −log10 of the molar value.

Experiments:
[1] = molecular target: Cyclin-dependent kinase 2 (Homo sapiens) (UniProt P24941); assay: Percentage A2780 cells in G1 after 24 hr r at 5 nM (IC50); format: functional, cell-based
[2] = tested on: Mus musculus; assay: At a dose 50 mg/kg (114 umol/kg) was administered intraperitoneally to mice and was evaluated for area under curve (AUCtot); format: ADME, organism-based; design: time AUCmax, dose 50 mg/kg, route intraperitoneal; details: in vivo, ip
[3] = molecular target: Cyclin-dependent kinase 1/cyclin B (Homo sapiens, UniProt P06493); assay: Inhibitory activity against baculovirus expressed Cyclin dependent kinase 1-cyclinB; format: protein-complex assay
[4] = At a dose 50 mg/kg (114 umol/kg) was administered intraperitoneally to mice and was evaluated for half life (T1/2); format: ADME, organism-based; design: dose 50 mg/kg, route intraperitoneal; details: mouse, in vivo, ip
[5] = molecular target: Cyclin-dependent kinase 2 (Homo sapiens) (UniProt P24941); assay: Percentage A2780 cells in G1 after 24 hr r at 29 nM (IC90); format: functional, cell-based
[6] = tested on: P388; assay: […] antitumor activity against P388 murine leukemia at 7.5 mg/kg i.p. /qd x7 and %T/C; format: functional, Mus musculus; details: route intraperitoneal
[7] = tested on: A2780; assay: cells; details: Homo sapiens
Description: Cytotoxic activity against A2780 human ovarian carcinoma cell line

[8] = tested on: A2780; assay: […] antitumor activity against A2780 human ovarian carcinoma at 7.5 mg/kg i.p. /qd x7; format: functional; details: route intraperitoneal
[9] = molecular target: Cyclin-dependent kinase 4/cyclin D1 (Homo sapiens, UniProt P11802); assay: Inhibitory activity against baculovirus expressed Cyclin dependent kinase 4-cyclinD1; format: protein-complex assay
[10] = molecular target: Cyclin-dependent kinase 2 (Homo sapiens) (UniProt P24941); assay: Apoptotic A2780 cells after 24 hr r at 29 nM (IC90); format: functional, cell-based
[11] = tested on: M109; assay: Inhibition of M109 mouse lung carcinoma cell proliferation; format: functional, cell-based
[12] = organism: Homo sapiens; assay: Percent of serum binding in human; format: functional
[13] = molecular target: Cyclin-dependent kinase 2/cyclin E (Homo sapiens, UniProt P24941); assay: Inhibitory activity against baculovirus expressed Cyclin dependent kinase 2-cyclinE; format: protein-complex assay
[14] = molecular target: Cyclin-dependent kinase 2 (Homo sapiens) (UniProt P24941); assay: Percentage A2780 cells in sub-G1 after 24 hr r at 29 nM (IC90)
[15] = tested on: HS27; assay: Inhibition of Hs 27 human fibroblast cell proliferation; format: functional, cell-based
[16] = molecular target: Cyclin-dependent kinase 2 (Homo sapiens) (UniProt P24941); assay: Percentage A2780 cells in G2/M after 24 hr r at 5 nM (IC50); format: functional, cell-based
[17] = molecular target: Cyclin-dependent kinase 2 (Homo sapiens) (UniProt P24941); assay: Percentage A2780 cells in S-phase after 24 hr r at 29 nM (IC90); format: functional, cell-based
[18] = At a dose 50 mg/kg (114 umol/kg) was administered intraperitoneally to mice and was evaluated for Cmax; format: ADME, organism-based; design: dose 50 mg/kg, route intraperitoneal; details: mouse, in vivo, ip
[19] = molecular target: Cyclin-dependent kinase 2 (Homo sapiens) (UniProt P24941); assay: Percentage A2780 cells in S-phase after 24 hr r at 5 nM (IC50); format: functional, cell-based
[20] = At a dose 50 mg/kg (114 umol/kg) was administered intraperitoneally to mice and was evaluated for T max; format: ADME, organism-based; design: dose 50 mg/kg, route intraperitoneal; details: mouse, in vivo, ip
[21] = molecular target: Cyclin-dependent kinase 2 (Homo sapiens) (UniProt P24941); assay: Percentage A2780 cells in G2/M after 24 hr r at 29 nM (IC90); format: functional, cell-based
[22] = molecular target: Cyclin-dependent kinase 2 (Homo sapiens) (UniProt P24941); assay: Percentage A2780 cells in sub-G1 after 24 hr r at 5 nM (IC50); format: functional, cell-based
[23] = tested on: MLF; assay: Inhibition of MLF mouse lung fibroblast cell proliferation; format: functional, cell-based
[24] = (§1) At a dose 50 mg/kg (114 umol/kg) was administered intraperitoneally to mice and was evaluated for MRT; format: ADME, organism-based; design: dose 50 mg/kg, route intraperitoneal; details: mouse, in vivo, ip
[25] = molecular target: Cyclin-dependent kinase 2 (Homo sapiens) (UniProt P24941); assay: Apoptotic A2780 cells after 24 hr r at 5 nM (IC50); format: functional, cell-based
[26] = Bioavailability at a dose of 10 mg/kg peroral administration in mice.; format: ADME, organism-based; details: mouse, in vivo, po, read-out: Bioavailabiility
[27] = Half life at a dose of 10 mg/kg intravenous administration in mice.; format: ADME, organism-based; design: dose 10 mg/kg, route intravenous; details: mouse, in vivo
[28] = tested on: Mus musculus; assay: as §1; format: functional, organism-based; design: dose 50 mg/kg
[29] = molecular target: Receptor tyrosine-protein kinase erbB-2 (Homo sapiens, UniProt P04626); assay: Inhibition of HER2 kinase
[30] = molecular target: Protein kinase C epsilon type (Homo sapiens, UniProt Q02156); assay: Inhibition of Protein kinase C epsilon
[31] = tested on: Mus musculus; assay: AUC total value at a dose of 10 mg/kg intravenous administration in mice.; format: ADME, organism-based, Plasma; design: dose 10 mg/kg, route intravenous; details: in vivo
[32] = Tmax value at a dose of 10 mg/kg peroral administration in mice.; format: ADME, organism-based; design: dose 10 mg/kg, route oral; details: mouse, in vivo, po
[33] = MRT value at a dose of 10 mg/kg peroral administration in mice.; format: ADME, organism-based; design: dose 10 mg/kg, route oral; details: mouse, in vivo, po
[34] = Vss value at a dose of 10 mg/kg intravenous administration in mice.; format: ADME, organism-based; design: dose 10 mg/kg, route intravenous; details: mouse, in vivo, read-out: Vss
[35] = tested on: Mus musculus; assay: AUC total value at a dose of 10 mg/kg peroral administration in mice.; format: ADME, organism-based, Plasma; design: dose 10 mg/kg, route oral; details: in vivo, po
[36] = Tmax value at a dose of 10 mg/kg intravenous administration in mice.; format: ADME, organism-based; design: dose 10 mg/kg, route intravenous; details: mouse, in vivo
[37] = molecular target: Protein kinase C beta type (Homo sapiens, UniProt P05771); assay: Inhibition of Protein kinase C beta
[38] = Cmax value at a dose of 10 mg/kg peroral administration in mice.; format: ADME, organism-based; design: dose 10 mg/kg, route oral; details: mouse, in vivo, po
[39] = Half life at a dose of 10 mg/kg peroral administration in mice.; format: ADME, organism-based; design: dose 10 mg/kg, route oral; details: mouse, in vivo, po
[40] = molecular target: Protein kinase C zeta (Homo sapiens) (UniProt Q05513); assay: Inhibition of Protein kinase C zeta
[41] = Cmax value at a dose of 10 mg/kg intravenous administration in mice.; format: ADME, organism-based; design: dose 10 mg/kg, route intravenous; details: mouse, in vivo
[42] = molecular target: Tyrosine-protein kinase ZAP-70 (Homo sapiens, UniProt P43403); assay: Inhibition of Zeta-chain (TCR) associated protein kinase 70 kDa (ZAP70)
[43] = Inhibition of Insulin-like growth factor receptor
[44] = organism: Mus musculus; assay: Metabolic rate in mouse; format: ADME
[45] = Plasma clearance at a dose of 10 mg/kg intravenous administration in mice.; format: ADME, organism-based; design: dose 10 mg/kg, route intravenous; details: mouse
[46] = MRT value at a dose of 10 mg/kg intravenous administration in mice.; format: ADME, organism-based; design: dose 10 mg/kg, route intravenous; details: mouse, in vivo
[47] = molecular target: Protein kinase C delta type (Homo sapiens, UniProt Q05655); assay: Inhibition of Protein kinase C delta
[48] = molecular target: T1, Tyrosine-protein kinase ITK/TSK (Homo sapiens, UniProt Q08881); assay: Inhibition of tyrosine kinase EMT
T1 sequence (Q08881 whole entry): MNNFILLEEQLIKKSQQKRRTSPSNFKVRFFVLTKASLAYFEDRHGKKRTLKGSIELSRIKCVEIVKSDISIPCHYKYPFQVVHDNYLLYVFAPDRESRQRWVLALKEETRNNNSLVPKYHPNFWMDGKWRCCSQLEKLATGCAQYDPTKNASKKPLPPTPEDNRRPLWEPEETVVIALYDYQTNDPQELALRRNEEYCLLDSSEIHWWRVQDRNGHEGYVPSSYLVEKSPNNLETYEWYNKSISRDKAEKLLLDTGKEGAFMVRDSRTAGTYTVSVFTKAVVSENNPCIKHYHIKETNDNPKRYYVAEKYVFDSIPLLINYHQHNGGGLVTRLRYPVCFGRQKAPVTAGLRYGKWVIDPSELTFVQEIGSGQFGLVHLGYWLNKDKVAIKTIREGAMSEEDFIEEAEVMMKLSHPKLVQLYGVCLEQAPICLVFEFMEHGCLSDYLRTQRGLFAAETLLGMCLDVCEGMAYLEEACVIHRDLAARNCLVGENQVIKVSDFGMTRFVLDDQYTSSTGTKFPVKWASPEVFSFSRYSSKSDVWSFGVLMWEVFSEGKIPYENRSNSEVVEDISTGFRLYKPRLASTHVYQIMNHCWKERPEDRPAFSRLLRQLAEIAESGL

[49] = molecular target: Protein kinase C alpha type (Homo sapiens, UniProt P17252); assay: Inhibition of Protein kinase C alpha
[50] = organism: Mus musculus; assay: Percent of serum binding in mouse; format: functional
[51] = organism: Homo sapiens; assay: Metabolic rate in human; format: ADME
[52] = Inhibition of I kappa-B kinase

Sequence of Cyclin-dependent kinase 4/cyclin D1 (P11802 whole entry): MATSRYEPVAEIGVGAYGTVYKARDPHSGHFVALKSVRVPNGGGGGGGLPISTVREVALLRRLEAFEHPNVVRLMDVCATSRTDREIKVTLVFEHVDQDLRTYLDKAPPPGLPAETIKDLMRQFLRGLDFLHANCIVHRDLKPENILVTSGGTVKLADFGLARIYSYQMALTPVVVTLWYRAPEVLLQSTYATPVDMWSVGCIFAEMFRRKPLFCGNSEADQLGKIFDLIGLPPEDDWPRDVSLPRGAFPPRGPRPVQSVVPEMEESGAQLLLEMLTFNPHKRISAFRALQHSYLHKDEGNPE
Sequence of Cyclin-dependent kinase 4/cyclin D1 (P24385 whole entry, further chain): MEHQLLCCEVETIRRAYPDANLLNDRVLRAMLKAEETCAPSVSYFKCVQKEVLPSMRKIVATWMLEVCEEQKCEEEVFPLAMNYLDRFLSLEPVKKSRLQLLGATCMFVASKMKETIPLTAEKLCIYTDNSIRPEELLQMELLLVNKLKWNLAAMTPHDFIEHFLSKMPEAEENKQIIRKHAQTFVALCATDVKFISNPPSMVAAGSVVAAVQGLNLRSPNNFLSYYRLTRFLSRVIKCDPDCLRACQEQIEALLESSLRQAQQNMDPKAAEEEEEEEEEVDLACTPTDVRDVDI
Sequence of Protein kinase C delta type (Q05655 whole entry): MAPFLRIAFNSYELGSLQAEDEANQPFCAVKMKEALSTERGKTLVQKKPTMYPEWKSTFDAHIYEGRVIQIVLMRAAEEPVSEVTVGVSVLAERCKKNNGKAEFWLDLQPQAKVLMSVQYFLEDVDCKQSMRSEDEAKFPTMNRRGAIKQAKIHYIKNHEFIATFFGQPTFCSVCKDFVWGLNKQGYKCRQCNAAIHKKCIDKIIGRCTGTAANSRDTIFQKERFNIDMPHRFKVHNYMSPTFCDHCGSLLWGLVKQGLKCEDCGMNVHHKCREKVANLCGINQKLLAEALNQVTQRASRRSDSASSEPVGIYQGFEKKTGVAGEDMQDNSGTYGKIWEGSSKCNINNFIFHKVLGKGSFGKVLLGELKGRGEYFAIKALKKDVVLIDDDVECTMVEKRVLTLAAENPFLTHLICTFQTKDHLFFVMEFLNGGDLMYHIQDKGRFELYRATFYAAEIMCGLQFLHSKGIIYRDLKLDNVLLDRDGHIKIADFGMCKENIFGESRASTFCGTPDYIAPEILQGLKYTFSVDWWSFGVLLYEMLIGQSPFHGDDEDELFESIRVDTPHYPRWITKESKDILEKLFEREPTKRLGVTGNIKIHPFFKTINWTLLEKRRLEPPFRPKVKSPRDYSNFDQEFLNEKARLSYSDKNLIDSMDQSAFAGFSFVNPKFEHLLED
Sequence of Protein kinase C epsilon type (Q02156 whole entry): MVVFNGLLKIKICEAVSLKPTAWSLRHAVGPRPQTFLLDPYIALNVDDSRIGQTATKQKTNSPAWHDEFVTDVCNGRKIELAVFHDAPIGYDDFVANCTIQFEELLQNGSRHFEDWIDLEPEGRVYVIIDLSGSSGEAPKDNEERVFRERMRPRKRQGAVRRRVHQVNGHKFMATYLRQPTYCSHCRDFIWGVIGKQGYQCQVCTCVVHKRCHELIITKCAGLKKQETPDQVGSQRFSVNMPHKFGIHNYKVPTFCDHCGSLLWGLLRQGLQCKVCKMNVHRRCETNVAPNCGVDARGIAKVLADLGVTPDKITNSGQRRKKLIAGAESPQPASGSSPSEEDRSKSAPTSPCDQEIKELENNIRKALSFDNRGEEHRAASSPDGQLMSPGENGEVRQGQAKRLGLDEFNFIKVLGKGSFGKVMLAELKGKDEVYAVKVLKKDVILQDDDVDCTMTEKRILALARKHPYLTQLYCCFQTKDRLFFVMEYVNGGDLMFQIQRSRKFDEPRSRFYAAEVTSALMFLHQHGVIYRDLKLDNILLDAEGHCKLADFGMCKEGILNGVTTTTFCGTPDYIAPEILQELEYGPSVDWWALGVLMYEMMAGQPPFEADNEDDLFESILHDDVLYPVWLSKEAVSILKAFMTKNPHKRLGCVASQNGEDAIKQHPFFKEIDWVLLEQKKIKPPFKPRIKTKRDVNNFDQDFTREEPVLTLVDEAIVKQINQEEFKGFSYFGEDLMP
Sequence of Protein kinase C beta type (P05771 whole entry): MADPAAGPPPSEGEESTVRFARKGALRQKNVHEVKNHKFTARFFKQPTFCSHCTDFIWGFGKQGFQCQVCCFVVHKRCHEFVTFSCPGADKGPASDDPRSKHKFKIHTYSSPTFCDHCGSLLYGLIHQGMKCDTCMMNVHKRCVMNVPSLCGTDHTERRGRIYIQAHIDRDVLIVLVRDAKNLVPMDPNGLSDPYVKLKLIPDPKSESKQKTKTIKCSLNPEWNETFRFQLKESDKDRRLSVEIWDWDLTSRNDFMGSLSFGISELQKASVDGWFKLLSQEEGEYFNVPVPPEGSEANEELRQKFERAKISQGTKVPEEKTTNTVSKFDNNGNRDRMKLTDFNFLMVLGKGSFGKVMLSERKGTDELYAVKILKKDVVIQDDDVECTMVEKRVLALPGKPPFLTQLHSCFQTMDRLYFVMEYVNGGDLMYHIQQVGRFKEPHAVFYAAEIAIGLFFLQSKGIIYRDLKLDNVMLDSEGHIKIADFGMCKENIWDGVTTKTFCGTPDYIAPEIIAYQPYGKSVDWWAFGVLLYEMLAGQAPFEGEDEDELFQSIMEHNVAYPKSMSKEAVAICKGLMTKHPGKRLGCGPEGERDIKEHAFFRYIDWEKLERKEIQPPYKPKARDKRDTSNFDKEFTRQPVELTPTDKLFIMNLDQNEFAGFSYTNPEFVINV
Sequence of Protein kinase C zeta (Homo sapiens) (Q05513 whole entry, looked up): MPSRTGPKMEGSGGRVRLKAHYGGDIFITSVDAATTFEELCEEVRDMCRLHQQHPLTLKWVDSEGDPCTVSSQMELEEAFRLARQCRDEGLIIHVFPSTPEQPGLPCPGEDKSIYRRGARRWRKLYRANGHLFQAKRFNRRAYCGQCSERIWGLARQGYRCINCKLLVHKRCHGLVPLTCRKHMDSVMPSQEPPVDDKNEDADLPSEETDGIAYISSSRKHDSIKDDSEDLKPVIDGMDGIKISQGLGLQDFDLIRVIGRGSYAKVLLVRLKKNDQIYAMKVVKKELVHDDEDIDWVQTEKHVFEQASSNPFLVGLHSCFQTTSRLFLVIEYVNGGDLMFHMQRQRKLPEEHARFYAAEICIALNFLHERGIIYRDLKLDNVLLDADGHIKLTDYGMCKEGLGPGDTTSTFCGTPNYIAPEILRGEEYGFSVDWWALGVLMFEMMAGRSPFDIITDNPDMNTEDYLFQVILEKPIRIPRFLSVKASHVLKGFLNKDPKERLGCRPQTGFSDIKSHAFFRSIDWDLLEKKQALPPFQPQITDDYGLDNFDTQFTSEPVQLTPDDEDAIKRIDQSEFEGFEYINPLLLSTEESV
Sequence of Tyrosine-protein kinase ZAP-70 (P43403 whole entry): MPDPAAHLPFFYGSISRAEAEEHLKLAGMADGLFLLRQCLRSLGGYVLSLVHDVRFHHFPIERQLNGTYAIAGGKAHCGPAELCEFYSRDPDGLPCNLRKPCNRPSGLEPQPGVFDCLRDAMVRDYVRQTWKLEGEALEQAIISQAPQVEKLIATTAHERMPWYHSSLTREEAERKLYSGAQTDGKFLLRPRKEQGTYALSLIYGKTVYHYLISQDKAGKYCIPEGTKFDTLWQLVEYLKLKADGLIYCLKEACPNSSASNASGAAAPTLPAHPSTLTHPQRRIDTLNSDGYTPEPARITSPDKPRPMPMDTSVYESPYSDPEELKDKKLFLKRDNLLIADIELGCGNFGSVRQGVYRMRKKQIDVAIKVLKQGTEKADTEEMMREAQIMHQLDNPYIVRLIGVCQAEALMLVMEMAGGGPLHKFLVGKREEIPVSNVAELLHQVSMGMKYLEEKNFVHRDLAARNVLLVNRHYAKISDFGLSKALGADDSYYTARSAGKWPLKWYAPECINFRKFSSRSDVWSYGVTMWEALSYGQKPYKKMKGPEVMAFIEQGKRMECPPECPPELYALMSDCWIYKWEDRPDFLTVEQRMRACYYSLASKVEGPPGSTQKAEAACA

In the case of `CCc1cnc(CSc2cnc(NC(=O)Cc3cccnc3)s2)o1`, the Cell cycle [1] was 71%, the AUC [2] was 23 µM·h and the pIC50 [3] was 7.10. The half-life [4] was 1.1 h, the Cell cycle [5] was 50% and the T/C [6] was 115%. For the same compound, the pIC50 [7] was 6.62, the LCK [8] was 0.4 and the pIC50 [9] was 5.96. The Cell cycle [10] was 69%, the pIC50 [11] was 5.68 and the Activity [12] was 82%. The pIC50 [13] was 8.30, the Cell cycle [14] was 25% and the pIC50 [15] was 6.07. The Cell cycle [16] was 20%, the Cell cycle [17] was 7% and the Cmax [18] was 40 µM. It also gave a Cell cycle [19] of 7%, a Tmax [20] of 0.5 h and a Cell cycle [21] of 18%. The Cell cycle [22] was 2%, the pIC50 [23] was 5.73 and the MRT [24] was 0.8 h. The Cell cycle [25] was 4%.

Compound `CC(C)(C)c1cnc(CSc2cnc(NC(=O)Cc3ccc(CNC(CO)CO)cc3)s2)o1` has an AUC total [2] of 2.7 µM·h, a half-life [4] of 1.8 h and a bioavailability [26] of 24%. The half-life [27] was 2.2 h, the T/C [6] was 140% and the MRT [28] was 2.9 h. For the same compound, the LCK [8] was 3.3, the pIC50 [29] was < 4.60 and the pIC50 [30] was 5.25. For the same compound, the AUC total [31] was 4.98 µM·h, the Tmax [32] was 0.33 h and the MRT [33] was 4.1 h. For the same compound, the Vd [34] was 6.9 L/kg, the pIC50 [9] was 7.00 and the AUC total [35] was 1.2 µM·h. The Tmax [36] was 4.8 min, the pIC50 [37] was < 4.35 and the Cmax [38] was 0.635 µM. The half-life [39] was 1.4 h, the Activity [12] was 78% and the pIC50 [40] was 4.46. The Cmax [41] was 8.27 µM, the pIC50 [42] was < 4.30 and the pIC50 [43] was 4.62. For the same compound, the Rate [44] was 0.22 nM min-1 (mg of protein)-1, the clearance [45] was 67 mL/min/kg and the Cmax [18] was 0.8 µM. It also gave an MRT [46] of 1.8 h, a Tmax [20] of 1 h and a pIC50 [47] of 4.35. The pIC50 [48] was 4.54, the pIC50 [49] was < 4.35 and the Activity [50] was 79%. For the same compound, the Rate [51] was 0.21 nM min-1 (mg of protein)-1 and the pIC50 [52] was 4.55.

With `CC(C)(C)C(=O)Nc1ncc(SCc2ncc(C(C)(C)C)o2)s1` the pIC50 [3] was 7.05, the pIC50 [7] was 6.60 and the pIC50 [9] was 5.46. It also gave a pIC50 [13] of 7.77.

For `CC(C)(C)c1cnc(CSc2cnc(NC(=O)Nc3c(Cl)cccc3Cl)s2)o1`, the pIC50 [3] was 7.52, the pIC50 [7] was 5.82 and the pIC50 [9] was < 6.00. It also gave a pIC50 [13] of 8.52.

`CC(=O)Nc1ncc(SCc2ncc(CC3CCCCC3)o2)s1` showed a pIC50 [3] of 7.52, a pIC50 [7] of 5.81 and a pIC50 [9] of 6.19. The pIC50 [13] was 8.40.
